Test results from US8440710B2, “HSL inhibitors useful in the treatment of diabetes” (Hoffmann-La Roche Inc., priority 2009, dated 2013).

Target: T1, human HSL (Homo sapiens, UniProt Q05469)
T1 construct: generate a full length human HSL ORF with a 3′-His6 tag; made in house; host or cells: High 5 insect cells (baculovirus, pFast-BAC)
T1 sequence (Q05469 1-1076): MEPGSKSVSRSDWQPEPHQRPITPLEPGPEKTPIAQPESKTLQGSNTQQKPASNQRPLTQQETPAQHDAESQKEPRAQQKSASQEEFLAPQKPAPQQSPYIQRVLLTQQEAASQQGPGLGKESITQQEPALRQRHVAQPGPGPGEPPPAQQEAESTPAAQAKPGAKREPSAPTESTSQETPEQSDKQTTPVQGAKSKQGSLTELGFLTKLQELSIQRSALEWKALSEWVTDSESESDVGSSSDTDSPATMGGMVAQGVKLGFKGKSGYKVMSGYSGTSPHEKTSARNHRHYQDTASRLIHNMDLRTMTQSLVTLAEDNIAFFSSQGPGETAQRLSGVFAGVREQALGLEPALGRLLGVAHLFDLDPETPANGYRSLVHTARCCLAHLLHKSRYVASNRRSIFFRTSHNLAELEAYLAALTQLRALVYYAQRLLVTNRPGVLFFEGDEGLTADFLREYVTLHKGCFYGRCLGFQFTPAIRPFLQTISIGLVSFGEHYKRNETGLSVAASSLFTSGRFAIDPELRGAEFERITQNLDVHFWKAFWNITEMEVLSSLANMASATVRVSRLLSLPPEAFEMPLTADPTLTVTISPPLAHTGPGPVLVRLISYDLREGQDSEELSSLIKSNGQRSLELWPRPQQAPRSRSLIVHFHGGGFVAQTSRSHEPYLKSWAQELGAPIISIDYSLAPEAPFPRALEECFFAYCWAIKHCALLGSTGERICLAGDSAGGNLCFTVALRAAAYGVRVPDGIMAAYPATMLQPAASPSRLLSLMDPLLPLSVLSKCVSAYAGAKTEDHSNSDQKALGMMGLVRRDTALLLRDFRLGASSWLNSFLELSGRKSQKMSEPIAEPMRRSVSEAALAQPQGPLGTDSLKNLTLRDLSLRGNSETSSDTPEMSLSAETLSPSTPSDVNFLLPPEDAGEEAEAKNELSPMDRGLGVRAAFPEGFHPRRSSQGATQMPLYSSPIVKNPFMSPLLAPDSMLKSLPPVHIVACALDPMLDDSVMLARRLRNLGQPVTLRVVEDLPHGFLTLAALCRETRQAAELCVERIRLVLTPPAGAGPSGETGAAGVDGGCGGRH
Experiment: Human Hormone-Sensitive Lipase (HSL) enzyme inhibition assay (colorimetric, DMPT substrate)
Assay type: biochemical
Conditions: human full length HSL-His6, 2,3-dimercapto-1-propanol tributyrate substrate, 37° C. 20 minutes, absorbance at 405 nm; read-out: HSL hum IC50
How it was run: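 Full-length human HSL with C-terminal His6, expressed in baculovirus-infected High 5 cells and Ni-NTA purified, was added (15 ug/ml stock) to 1.5 mM DMPT in 100 mM MOPS pH 7.2, 0.2 mg/ml fatty acid-free BSA containing compound. After 20 min at 37 °C, DTNB with SDS/Triton X-100 was added; A405 read after 15 min at RT.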

Row | Compound | IC50 [nM]
1 | O=C1N(c2ccc(OCC(F)(F)F)nc2)CC[C@]12CC[C@@](O)(COCC(F)F)CC2 [Example 295, (5α,8α)-8-(2,2-Difluoro-ethoxymethyl)-8-hydroxy-2-[6-(2,2,2-trifluoro-ethoxy)-pyridin-3-yl]-2-aza-spiro[4.5]decan-1-one] | 40
2 | C[C@H](Oc1ccc(N2CC[C@]3(CC[C@](O)(COCC(F)F)CC3)C2=O)cn1)C(F)(F)F [Example 296, (5α,8β)-8-(2,2-Difluoro-ethoxymethyl)-8-hydroxy-2-[6-((S)-2,2,2-trifluoro-1-methyl-ethoxy)-pyridin-3-yl]-2-aza-spiro[4.5]decan-1-one] | 550
3 | C[C@H](Oc1ccc(N2CC[C@]3(CC[C@@](O)(COCC(F)F)CC3)C2=O)cn1)C(F)(F)F [Example 297, (5α,8α)-8-(2,2-Difluoro-ethoxymethyl)-8-hydroxy-2-[6-((S)-2,2,2-trifluoro-1-methyl-ethoxy)-pyridin-3-yl]-2-aza-spiro[4.5]decan-1-one] | 20
4 | C[C@H](Oc1ccc(N2CC[C@]3(CC[C@](O)(COCC(F)F)CC3)C2=O)cc1)C(F)(F)F [Example 298, (5α,8β)-8-(2,2-Difluoro-ethoxymethyl)-8-hydroxy-2-[4-((S)-2,2,2-trifluoro-1-methyl-ethoxy)-phenyl]-2-aza-spiro[4.5]decan-1-one] | 590
5 | C[C@H](Oc1ccc(N2CC[C@]3(CC[C@@](O)(COCC(F)F)CC3)C2=O)cc1)C(F)(F)F [Example 299, (5α,8α)-8-(2,2-Difluoro-ethoxymethyl)-8-hydroxy-2-[4-((S)-2,2,2-trifluoro-1-methyl-ethoxy)-phenyl]-2-aza-spiro[4.5]decan-1-one] | 10
6 | C[C@@H](Oc1ccc(N2CC[C@]3(CC[C@](O)(COCC(F)F)CC3)C2=O)cc1)C(F)(F)F [Example 300, (5α,8β)-8-(2,2-Difluoro-ethoxymethyl)-8-hydroxy-2-[4-((R)-2,2,2-trifluoro-1-methyl-ethoxy)-phenyl]-2-aza-spiro[4.5]decan-1-one] | 300
7 | C[C@@H](Oc1ccc(N2CC[C@]3(CC[C@@](O)(COCC(F)F)CC3)C2=O)cc1)C(F)(F)F [Example 301, (5α,8α)-8-(2,2-Difluoro-ethoxymethyl)-8-hydroxy-2-[4-((R)-2,2,2-trifluoro-1-methyl-ethoxy)-phenyl]-2-aza-spiro[4.5]decan-1-one] | 10
8 | O=C1N(c2ccc(CC(F)(F)F)cc2)CC[C@]12CC[C@](O)(COCC(F)F)CC2 [Example 302, (5α,8β)-8-(2,2-Difluoro-ethoxymethyl)-8-hydroxy-2-[4-(2,2,2-trifluoro-ethyl)-phenyl]-2-aza-spiro[4.5]decan-1-one] | 510
9 | O=C1N(c2ccc(CC(F)(F)F)cc2)CC[C@]12CC[C@@](O)(COCC(F)F)CC2 [Example 303, (5α,8α)-8-(2,2-Difluoro-ethoxymethyl)-8-hydroxy-2-[4-(2,2,2-trifluoro-ethyl)-phenyl]-2-aza-spiro[4.5]decan-1-one] | 10
10 | CS(=O)(=O)C[C@]1(O)CC[C@]2(CCN(c3ccc(OCC(F)(F)F)cc3)C2=O)CC1 [Example 304, (5α,8α)-8-Hydroxy-8-methanesulfonylmethyl-2-[4-(2,2,2-trifluoro-ethoxy)-phenyl]-2-aza-spiro[4.5]decan-1-one] | 330
11 | CCCS(=O)(=O)C[C@]1(O)CC[C@]2(CCN(c3ccc(OCC(F)(F)F)cc3)C2=O)CC1 [Example 305, (5α,8α)-8-Hydroxy-8-(propane-1-sulfonylmethyl)-2-[4-(2,2,2-trifluoro-ethoxy)-phenyl]-2-aza-spiro[4.5]decan-1-one] | 30
12 | CC(C)SC[C@]1(O)CC[C@]2(CCN(c3ccc(OCC(F)(F)F)cc3)C2=O)CC1 [Example 306, (5α,8α)-8-Hydroxy-8-isopropylsulfanylmethyl-2-[4-(2,2,2-trifluoro-ethoxy)-phenyl]-2-aza-spiro[4.5]decan-1-one] | 10
13 | CC(C)OC[C@]1(O)CC[C@@]2(CCN(c3ccc(O[C@@H](C)C(F)(F)F)cc3)C2=O)CC1 [Example 307, (5α,8β)-8-Hydroxy-8-isopropoxymethyl-2-[4-((S)-2,2,2-trifluoro-1-methyl-ethoxy)-phenyl]-2-aza-spiro[4.5]decan-1-one] | 200
14 | CC(C)OC[C@]1(O)CC[C@]2(CCN(c3ccc(O[C@@H](C)C(F)(F)F)cc3)C2=O)CC1 [Example 308, (5α,8α)-8-Hydroxy-8-isopropoxymethyl-2-[4-((S)-2,2,2-trifluoro-1-methyl-ethoxy)-phenyl]-2-aza-spiro[4.5]decan-1-one] | 10
15 | CC(C)OC[C@]1(O)CC[C@]2(CCN(c3ccc(O[C@@H](C)C(F)(F)F)nc3)C2=O)CC1 [Example 309, (5α,8α)-8-Hydroxy-8-isopropoxymethyl-2-[6-((S)-2,2,2-trifluoro-1-methyl-ethoxy)-pyridin-3-yl]-2-aza-spiro[4.5]decan-1-one] | 10
16 | CC(C)OC[C@]1(O)CC[C@]2(CCN(c3ccc(O[C@H](C)C(F)(F)F)cc3)C2=O)CC1 [Example 310, (5α,8α)-8-Hydroxy-8-isopropoxymethyl-2-[4-((R)-2,2,2-trifluoro-1-methyl-ethoxy)-phenyl]-2-aza-spiro[4.5]decan-1-one] | 10
17 | CCOC[C@]1(O)CC[C@]2(CCN(c3ccc(O[C@H](C)C(F)(F)F)nc3)C2=O)CC1 [Example 311, (5α,8α)-8-Ethoxymethyl-8-hydroxy-2-[6-((R)-2,2,2-trifluoro-1-methyl-ethoxy)-pyridin-3-yl]-2-aza-spiro[4.5]decan-1-one] | 30
18 | CCCOC[C@]1(O)CC[C@]2(CCN(c3ccc(O[C@H](C)C(F)(F)F)nc3)C2=O)CC1 [Example 312, (5α,8α)-8-Hydroxy-8-propoxymethyl-2-[6-((R)-2,2,2-trifluoro-1-methyl-ethoxy)-pyridin-3-yl]-2-aza-spiro[4.5]decan-1-one] | 10
19 | C[C@@H](Oc1ccc(N2CC[C@]3(CC[C@](O)(COCC(F)F)CC3)C2=O)cn1)C(F)(F)F [Example 313, (5α,8β)-8-(2,2-Difluoro-ethoxymethyl)-8-hydroxy-2-[6-((R)-2,2,2-trifluoro-1-methyl-ethoxy)-pyridin-3-yl]-2-aza-spiro[4.5]decan-1-one] | 280
20 | C[C@@H](Oc1ccc(N2CC[C@]3(CC[C@@](O)(COCC(F)F)CC3)C2=O)cn1)C(F)(F)F [Example 314, (5α,8α)-8-(2,2-Difluoro-ethoxymethyl)-8-hydroxy-2-[6-((R)-2,2,2-trifluoro-1-methyl-ethoxy)-pyridin-3-yl]-2-aza-spiro[4.5]decan-1-one] | 20
21 | CC(C)OC[C@]1(O)CC[C@@]2(CCN(c3ccc(O[C@H](C)C(F)(F)F)nc3)C2=O)CC1 [Example 315, (5α,8β)-8-Hydroxy-8-isopropoxymethyl-2-[6-((R)-2,2,2-trifluoro-1-methyl-ethoxy)-pyridin-3-yl]-2-aza-spiro[4.5]decan-1-one] | 180
22 | CC(C)OC[C@]1(O)CC[C@]2(CCN(c3ccc(O[C@H](C)C(F)(F)F)nc3)C2=O)CC1 [Example 316, (5α,8α)-8-Hydroxy-8-isopropoxymethyl-2-[6-((R)-2,2,2-trifluoro-1-methyl-ethoxy)-pyridin-3-yl]-2-aza-spiro[4.5]decan-1-one] | 20
23 | CC(C)[S+]([O-])C[C@]1(O)CC[C@]2(CCN(c3ccc(OCC(F)(F)F)cc3)C2=O)CC1 (stereo partly drawn) [Example 317, (5α,8α)-8-Hydroxy-8-(propane-2-sulfinylmethyl)-2-[4-(2,2,2-trifluoro-ethoxy)-phenyl]-2-aza-spiro[4.5]decan-1-one] | 200
24 | CC(C)S(=O)(=O)C[C@]1(O)CC[C@]2(CCN(c3ccc(OCC(F)(F)F)cc3)C2=O)CC1 [Example 318, (5α,8α)-8-Hydroxy-8-(propane-2-sulfonylmethyl)-2-[4-(2,2,2-trifluoro-ethoxy)-phenyl]-2-aza-spiro[4.5]decan-1-one] | 30
25 | CC(C)(C)SC[C@]1(O)CC[C@]2(CCN(c3ccc(OCC(F)(F)F)cc3)C2=O)CC1 [Example 319, (5α,8α)-8-tert-Butylsulfanylmethyl-8-hydroxy-2-[4-(2,2,2-trifluoro-ethoxy)-phenyl]-2-aza-spiro[4.5]decan-1-one] | 10
